Among the data in ChEMBL document CHEMBL1126507, “The synthesis of novel 8a-aza-8a-homoerythromycin derivatives via the beckmann rearrangement of (9z)-erythromycin a oxime” (1993) are MIC values, retold here.

What all share (assay type): functional
Assay [1] relates to Escherichia coli. The assay can be described thus: Minimum inhibitory concentration required for antibacterial activity against Escherichia coli MB 2884 strain.
Assay [2] concerns Staphylococcus epidermidis. The assay can be described thus: Minimum inhibitory concentration required for antibacterial activity against Staphylococcus epidermidis MB 5414 strain.
Assay [3] deals with Haemophilus influenzae. The assay can be described thus: Minimum inhibitory concentration required for antibacterial activity against Haemophilus influenzae MB 5363 strain.
The next assay deals with Streptococcus pneumoniae. The assay can be described thus: Minimum inhibitory concentration required for antibacterial activity against Streptococcus pneumoniae CL 2883 strain.
Assay [4] concerns Haemophilus influenzae. In words: Minimum inhibitory concentration required for antibacterial activity against Haemophilus influenzae CL 1830 strain.
The subject of assay [5] is Enterobacter cloacae. The assay can be described thus: Minimum inhibitory concentration required for antibacterial activity against Enterobacter cloacae CL 4298 strain.
Assay [6] has as its system Enterococcus faecalis. The assay can be described thus: Minimum inhibitory concentration required for antibacterial activity against Enterococcus faecalis MB 5407 strain.
Another assay relates to Streptococcus pyogenes. The assay can be described thus: Minimum inhibitory concentration required for antibacterial activity against Streptococcus pyogenes MB 2874 strain.
Assay [7] deals with Staphylococcus aureus. In words: Minimum inhibitory concentration required for antibacterial activity against Staphylococcus aureus MB 2865 strain.
In assay [8] the test system is Klebsiella pneumoniae. In words: Minimum inhibitory concentration required for antibacterial activity against Klebsiella pneumoniae MB 4005 strain.
Assay [9] concerns Staphylococcus aureus. The assay can be described thus: Minimum inhibitory concentration required for antibacterial activity against Staphylococcus aureus MB 2865 strain;value ranges from 0.5-1.
In assay [10] the test system is Klebsiella pneumoniae. The assay can be described thus: Minimum inhibitory concentration required for antibacterial activity against Klebsiella pneumoniae MB 4005 strain;value ranges from 1-2.
The subject of assay [11] is Escherichia coli. In words: Minimum inhibitory concentration required for antibacterial activity against Escherichia coli MB 2884 strain;value ranges from 1-2.
Assay [12] relates to Haemophilus influenzae. The assay can be described thus: Minimum inhibitory concentration required for antibacterial activity against Haemophilus influenzae MB 5363 strain;value ranges from 0.5-2.
For assay [13], the system named is Haemophilus influenzae. The assay can be described thus: Minimum inhibitory concentration required for antibacterial activity against Haemophilus influenzae CL 1830 strain;value ranges from 8-16.
Assay [14] relates to Staphylococcus epidermidis. The assay can be described thus: Minimum inhibitory concentration required for antibacterial activity against Staphylococcus epidermidis MB 5414 strain;value ranges from 0.25-0.5.
Assay [15] relates to Enterococcus faecalis. The assay can be described thus: Minimum inhibitory concentration required for antibacterial activity against Enterococcus faecalis MB 5407 strain;value ranges from 4-8.
In assay [16] the test system is Staphylococcus epidermidis. In words: Minimum inhibitory concentration required for antibacterial activity against Staphylococcus epidermidis MB 5414 strain;value ranges from 16-128.
Assay [17] deals with Staphylococcus aureus. In words: Minimum inhibitory concentration required for antibacterial activity against Staphylococcus aureus MB 2865 strain;value ranges from 32-64.
Assay [18] has as its system Staphylococcus aureus. The assay can be described thus: Minimum inhibitory concentration required for antibacterial activity against Staphylococcus aureus MB 2865 strain;value ranges from 0.25-1.
For assay [19], the system named is Haemophilus influenzae. In words: Minimum inhibitory concentration required for antibacterial activity against Haemophilus influenzae CL 1830 strain;value ranges from 4-16.
Assay [20] deals with Enterococcus faecalis. The assay can be described thus: Minimum inhibitory concentration required for antibacterial activity against Enterococcus faecalis MB 5407 strain;value ranges from 1-2.
Assay [21] relates to Haemophilus influenzae. In words: Minimum inhibitory concentration required for antibacterial activity against Haemophilus influenzae MB 5363 strain;value ranges from 2-4.
Assay [22] has as its system Escherichia coli. In words: Minimum inhibitory concentration required for antibacterial activity against Escherichia coli MB 2884 strain;value ranges from 16-64.
Assay [23] relates to Staphylococcus aureus. The assay can be described thus: microbe, parasite or virus in culture.
Assay [24] has as its system Klebsiella pneumoniae. The assay can be described thus: Minimum inhibitory concentration required for antibacterial activity against Klebsiella pneumoniae MB 4005 strain;value ranges from 32-64.
The subject of assay [25] is Haemophilus influenzae. In words: Minimum inhibitory concentration required for antibacterial activity against Haemophilus influenzae CL 1830 strain;value ranges from 64-128.
Assay [26] deals with Enterobacter cloacae. In words: Minimum inhibitory concentration required for antibacterial activity against Enterobacter cloacae CL 4298 strain;value ranges from 32-64.

In brackets after ≈: the same amount, converted by molar mass.

For `CC[C@H]1OC(=O)[C@H](C)[C@@H](O[C@H]2C[C@@](C)(OC)[C@@H](O)[C@H](C)O2)[C@H](C)[C@@H](O[C@@H]2O[C@H](C)C[C@H](N(C)C)[C@H]2O)[C@](C)(O)C[C@@H](C)/N=C2/O[C@@]1(C)[C@H](O)[C@H]2C`, the MIC is 128 µg/mL (≈ 175 µM) against Escherichia coli [1]; 16 µg/mL (≈ 21.9 µM) in assay [2]; 64 µg/mL (≈ 87.6 µM) in the assay on Haemophilus influenzae [3]; 4 µg/mL (≈ 5.47 µM) against Streptococcus pneumoniae; > 128 µg/mL against Haemophilus influenzae [4]; 128 µg/mL (≈ 175 µM) against Enterobacter cloacae [5]. In addition, the MIC is > 128 µg/mL against Enterococcus faecalis [6], 2 µg/mL (≈ 2.74 µM) against Streptococcus pyogenes, 16 µg/mL (≈ 21.9 µM) with Staphylococcus aureus [7] and > 128 µg/mL in the assay on Klebsiella pneumoniae [8].
For the compound `CC[C@H]1OC(=O)[C@H](C)[C@@H](O[C@H]2C[C@@](C)(OC)[C@@H](O)[C@H](C)O2)[C@H](C)[C@@H](O[C@@H]2O[C@H](C)C[C@H](N(C)C)[C@H]2O)[C@](C)(O)C[C@@H](C)NC[C@H](C)[C@@H](O)[C@]1(C)O`, the MIC in the assay on Escherichia coli [1] is 2 µg/mL (≈ 2.72 µM); in assay [2] it was 0.5 µg/mL (≈ 0.68 µM); in the assay with Haemophilus influenzae [3], 4 µg/mL (≈ 5.44 µM); against Streptococcus pneumoniae, ≤ 0.06 µg/mL; with Haemophilus influenzae [4], 32 µg/mL (≈ 43.5 µM); with Enterobacter cloacae [5] it was 4 µg/mL (≈ 5.44 µM). Moreover, the MIC against Enterococcus faecalis [6] was 4 µg/mL (≈ 5.44 µM); with Streptococcus pyogenes it was ≤ 0.06 µg/mL; against Staphylococcus aureus [9] it was 0.5 µg/mL (≈ 0.68 µM); with Klebsiella pneumoniae [8] it was 4 µg/mL (≈ 5.44 µM).
On to `CC[C@H]1OC(=O)[C@H](C)[C@@H](O[C@H]2C[C@@](C)(OC)[C@@H](O)[C@H](C)O2)[C@H](C)[C@@H](O[C@@H]2O[C@H](C)C[C@H](N(C)C)[C@H]2O)[C@](C)(O)C[C@@H](C)CN(C)[C@H](C)[C@@H](O)[C@]1(C)O` [AZITHROMYCIN], for which the MIC against Klebsiella pneumoniae [10] was 1 µg/mL (≈ 1.34 µM); with Escherichia coli [11], 1 µg/mL (≈ 1.34 µM); in the assay with Streptococcus pneumoniae, ≤ 0.06 µg/mL; with Haemophilus influenzae [12], 0.5 µg/mL (≈ 0.668 µM); in the assay with Enterobacter cloacae [5] it was 1 µg/mL (≈ 1.34 µM); in the assay on Streptococcus pyogenes it was ≤ 0.06 µg/mL. Moreover, the MIC against Staphylococcus aureus [9] turned out to be 0.5 µg/mL (≈ 0.668 µM); against Haemophilus influenzae [13] it was 8 µg/mL (≈ 10.7 µM); in [14], 0.25 µg/mL (≈ 0.334 µM); against Enterococcus faecalis [15], 4 µg/mL (≈ 5.34 µM).
As for `CC[C@H]1OC(=O)[C@H](C)[C@@H](O[C@H]2C[C@@](C)(OC)[C@@H](O)[C@H](C)O2)[C@H](C)[C@@H](O[C@@H]2O[C@H](C)C[C@H](N(C)C)[C@H]2O)[C@@]2(C)C[C@@H](C)N=C(O2)[C@H](C)[C@@H](O)[C@]1(C)O`, the MIC was 128 µg/mL (≈ 175 µM) in the assay with Escherichia coli [1]; 64 µg/mL (≈ 87.6 µM) in the assay with Haemophilus influenzae [3]; 2 µg/mL (≈ 2.74 µM) against Streptococcus pneumoniae; > 128 µg/mL in the assay on Haemophilus influenzae [4]; 128 µg/mL (≈ 175 µM) in the assay on Enterobacter cloacae [5]; 16 µg/mL (≈ 21.9 µM) against Enterococcus faecalis [6]. For the same compound, the MIC against Streptococcus pyogenes was 0.5 µg/mL (≈ 0.684 µM); in [16], 16 µg/mL (≈ 21.9 µM); against Klebsiella pneumoniae [8], > 128 µg/mL; in the assay with Staphylococcus aureus [17], 32 µg/mL (≈ 43.8 µM).
Regarding `CC[C@H]1OC(=O)[C@H](C)[C@@H](O[C@H]2C[C@@](C)(OC)[C@@H](O)[C@H](C)O2)[C@H](C)[C@@H](O[C@@H]2O[C@H](C)C[C@H](N(C)C)[C@H]2O)[C@](C)(O)C[C@@H](C)N(C)C[C@H](C)[C@@H](O)[C@]1(C)O` [L-701677], the MIC against Klebsiella pneumoniae [10] is 1 µg/mL (≈ 1.34 µM); in the assay on Escherichia coli [11], 1 µg/mL (≈ 1.34 µM); with Streptococcus pneumoniae, ≤ 0.06 µg/mL; against Haemophilus influenzae [12], 0.5 µg/mL (≈ 0.668 µM); in the assay on Enterobacter cloacae [5], 1 µg/mL (≈ 1.34 µM); in the assay with Enterococcus faecalis [6], 2 µg/mL (≈ 2.67 µM). Moreover, the MIC in the assay with Streptococcus pyogenes is ≤ 0.06 µg/mL; in [14], 0.25 µg/mL (≈ 0.334 µM); against Staphylococcus aureus [18] it was 0.25 µg/mL (≈ 0.334 µM); against Haemophilus influenzae [19] it was 4 µg/mL (≈ 5.34 µM).
In the case of `CC[C@H]1OC(=O)[C@H](C)[C@@H](O[C@H]2C[C@@](C)(OC)[C@@H](O)[C@H](C)O2)[C@H](C)[C@@H](O[C@@H]2O[C@H](C)C[C@H](N(C)C)[C@H]2O)[C@](C)(O)C[C@@H](C)C(=O)[C@H](C)[C@@H](O)[C@]1(C)O` [ERYTHROMYCIN], the MIC in the assay on Enterococcus faecalis [20] was 1 µg/mL (≈ 1.36 µM); in [2], 0.125 µg/mL (≈ 0.17 µM); in the assay with Haemophilus influenzae [21], 2 µg/mL (≈ 2.73 µM); against Streptococcus pneumoniae it was ≤ 0.06 µg/mL; in the assay on Escherichia coli [22], 16 µg/mL (≈ 21.8 µM); in the assay with Staphylococcus aureus [23], 0.125 µg/mL (≈ 0.17 µM). Besides, the MIC against Klebsiella pneumoniae [24] is 32 µg/mL (≈ 43.6 µM); in the assay on Streptococcus pyogenes it was ≤ 0.06 µg/mL; with Haemophilus influenzae [25], 64 µg/mL (≈ 87.2 µM); against Enterobacter cloacae [26] it was 32 µg/mL (≈ 43.6 µM).
For the compound `CC[C@H]1OC(=O)[C@H](C)[C@@H](O[C@H]2C[C@@](C)(OC)[C@@H](O)[C@H](C)O2)[C@H](C)[C@@H](O[C@@H]2O[C@H](C)C[C@H](N(C)C)[C@H]2O)[C@](C)(O)C[C@@H](C)NC(=O)[C@H](C)[C@@H](O)[C@]1(C)O`, the MIC against Escherichia coli [1] is 16 µg/mL (≈ 21.4 µM); in assay [2], 0.5 µg/mL (≈ 0.668 µM); with Haemophilus influenzae [3], 32 µg/mL (≈ 42.7 µM); with Streptococcus pneumoniae it was ≤ 0.06 µg/mL; with Enterococcus faecalis [6], 8 µg/mL (≈ 10.7 µM); with Streptococcus pyogenes, ≤ 0.06 µg/mL. The results for the MIC against Staphylococcus aureus [7] and in the assay on Klebsiella pneumoniae [8] were 0.5 µg/mL (≈ 0.668 µM) and 32 µg/mL (≈ 42.7 µM), respectively.
